Results published in PubChem BioAssay (NCI).
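In this assay, cells in 96-well plates receive the compound at five concentrations for 48 hours. Endpoints are linearly interpolated between the surrounding concentrations. Definition used: TGI = concentration required for complete inhibition of growth.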

How the values were obtained:
Test in all cases: NCI-60 cell line screen, 48 h
DU-145 prostate = system: DU-145 prostate
PC-3 prostate = system: PC-3 prostate
SR leukemia = system: SR leukemia
M14 melanoma = system: M14 melanoma
786-0 renal = system: 786-0 renal
ACHN renal = system: ACHN renal
NCI/ADR-RES ovarian = system: NCI/ADR-RES ovarian
NCI-H226 lung = system: NCI-H226 lung
SF-295 CNS = system: SF-295 CNS
SK-MEL-5 melanoma = system: SK-MEL-5 melanoma
HCT-116 colon = system: HCT-116 colon
NCI-H23 lung = system: NCI-H23 lung
TK-10 renal = system: TK-10 renal
U251 CNS = system: U251 CNS
LOX IMVI melanoma = system: LOX IMVI melanoma
HOP-92 NSCLC = system: HOP-92 NSCLC
OVCAR-3 ovarian = system: OVCAR-3 ovarian
K-562 leukemia = system: K-562 leukemia
OVCAR-8 ovarian = system: OVCAR-8 ovarian
CCRF-CEM leukemia = system: CCRF-CEM leukemia
CAKI-1 renal = system: CAKI-1 renal
KM12 colon = system: KM12 colon
RXF 393 renal = system: RXF 393 renal
A498 renal = system: A498 renal
SNB-19 CNS = system: SNB-19 CNS
HOP-62 NSCLC = system: HOP-62 NSCLC
MDA-N = system: MDA-N
IGROV1 ovarian = system: IGROV1 ovarian
A549 NSCLC = system: A549 NSCLC
EKVX NSCLC = system: EKVX NSCLC
SW-620 colon = system: SW-620 colon
SN12C renal = system: SN12C renal
HL-60(TB) leukemia = system: HL-60(TB) leukemia
SK-OV-3 ovarian = system: SK-OV-3 ovarian
NCI-H460 lung = system: NCI-H460 lung
UO-31 renal = system: UO-31 renal
SF-268 CNS = system: SF-268 CNS
MALME-3M melanoma = system: MALME-3M melanoma
RPMI-8226 leukemia = system: RPMI-8226 leukemia
BT-549 breast = system: BT-549 breast
NCI-H522 lung = system: NCI-H522 lung
OVCAR-5 ovarian = system: OVCAR-5 ovarian
MCF7 breast = system: MCF7 breast
MOLT-4 leukemia = system: MOLT-4 leukemia
MDA-MB-231 breast = system: MDA-MB-231 breast
OVCAR-4 ovarian = system: OVCAR-4 ovarian
SK-MEL-28 melanoma = system: SK-MEL-28 melanoma
HS 578T breast = system: HS 578T breast
HCT-15 colon = system: HCT-15 colon
UACC-257 melanoma = system: UACC-257 melanoma
SK-MEL-2 melanoma = system: SK-MEL-2 melanoma
MDA-MB-435 = system: MDA-MB-435
SF-539 CNS = system: SF-539 CNS
COLO 205 colon = system: COLO 205 colon
HT29 colon = system: HT29 colon
UACC-62 melanoma = system: UACC-62 melanoma

With `CCC(=O)O[C@H]1CC[C@H]2[C@@H]3CCC4=CC(=O)C=C[C@]4(O)[C@H]3CC[C@]12C` the TGI (DU-145 prostate) was 64.5 µM, the TGI (PC-3 prostate) was 81.4 µM and the TGI (SR leukemia) was 80.5 µM. The TGI (M14 melanoma) was > 100 µM, the TGI (786-0 renal) was > 100 µM and the TGI (ACHN renal) was > 100 µM. For the same molecule, the TGI (NCI/ADR-RES ovarian) was 91.9 µM, the TGI (NCI-H226 lung) was > 100 µM and the TGI (SF-295 CNS) was > 100 µM. The TGI (SK-MEL-5 melanoma) was 19.9 µM, the TGI (HCT-116 colon) was > 100 µM and the TGI (NCI-H23 lung) was > 100 µM. For the same molecule, the TGI (TK-10 renal) was > 100 µM, the TGI (U251 CNS) was 47.4 µM and the TGI (LOX IMVI melanoma) was 69.5 µM. The TGI (HOP-92 NSCLC) was 82.1 µM, the TGI (OVCAR-3 ovarian) was 68.4 µM and the TGI (K-562 leukemia) was > 100 µM. The TGI (OVCAR-8 ovarian) was > 100 µM, the TGI (CCRF-CEM leukemia) was 17.2 µM and the TGI (CAKI-1 renal) was 88.4 µM. The TGI (KM12 colon) was 85.1 µM, the TGI (RXF 393 renal) was 52.4 µM and the TGI (A498 renal) was > 100 µM. For the same molecule, the TGI (SNB-19 CNS) was > 100 µM, the TGI (HOP-62 NSCLC) was > 100 µM and the TGI (MDA-N) was > 100 µM. The TGI (IGROV1 ovarian) was > 100 µM, the TGI (A549 NSCLC) was > 100 µM and the TGI (EKVX NSCLC) was > 100 µM. The TGI (SW-620 colon) was > 100 µM, the TGI (SN12C renal) was > 100 µM and the TGI (HL-60(TB) leukemia) was 37.6 µM. For the same molecule, the TGI (SK-OV-3 ovarian) was > 100 µM, the TGI (NCI-H460 lung) was 44.5 µM and the TGI (UO-31 renal) was > 100 µM. For the same molecule, the TGI (SF-268 CNS) was > 100 µM, the TGI (MALME-3M melanoma) was > 100 µM and the TGI (RPMI-8226 leukemia) was > 100 µM. The TGI (BT-549 breast) was 57.5 µM, the TGI (NCI-H522 lung) was > 100 µM and the TGI (OVCAR-5 ovarian) was > 100 µM. For the same molecule, the TGI (MCF7 breast) was > 100 µM, the TGI (MOLT-4 leukemia) was > 100 µM and the TGI (MDA-MB-231 breast) was 58.5 µM. The TGI (OVCAR-4 ovarian) was > 100 µM, the TGI (SK-MEL-28 melanoma) was > 100 µM and the TGI (HS 578T breast) was > 100 µM. The TGI (HCT-15 colon) was > 100 µM, the TGI (UACC-257 melanoma) was 26.8 µM and the TGI (SK-MEL-2 melanoma) was 45.8 µM. For the same molecule, the TGI (MDA-MB-435) was 10.2 µM, the TGI (SF-539 CNS) was > 100 µM and the TGI (COLO 205 colon) was > 100 µM. The TGI (HT29 colon) was 58.4 µM and the TGI (UACC-62 melanoma) was > 100 µM.
